Article PMC9127750, “Structure-based design of CDC42 effector interaction inhibitors for the treatment of cancer” (Cell reports, 2022)
Where “and” joins values, the source holds several entries; their conditions need not be identical. Identical values can stand only once.

Tested on: WM3248 melanoma cells, 486 antibodies
Experiment: Reverse phase protein arrays (RPPA)
Type: cell-based, Human
Excerpt: Pellets were snap frozen in liquid nitrogen and shipped to MD Anderson Cancer Center core RPPA facility for RPPA analysis (Table S5). Three biological replicates for each sample were generated.
Nomenclatures on the RPPA heatmaps: name_of_antibody.species_of_antibody.status_of_antibody. V - antibody validated; C - validation of antibody in progress; Q - antibody nonspecific; E – under evaluation; antibodies raised in M - mouse, G - goat, R - rabbit, or T - rat.

[1] = level 20 normalized to 0, mean of 3
[2] = level 20 normalized to 0, single replicates

CN(C)c1cccc(Nc2cc(-c3ccccc3)nc(C3CCNCC3)n2)c1 [ARN22089, N1,N1-dimethyl-N3-(6-phenyl-2-(piperidin-4-yl)pyrimidin-4-yl)benzene-1,3-diamine]
MEK1_pS217_S221.R.V Norm_10 (level 10 vs 0, replicates): 0.653 and 1.014 | MEK2.R.V Norm_10 (level 10 vs 0, replicates): 0.958 | MERIT40.R.C Norm_10 (level 10 vs 0, replicates): 0.835 and 0.967 and 1.096 | MERIT40_pS29.R.V Norm_10 (level 10 vs 0, replicates): 1.054 and 0.952 and 1.159 | METTL3.R.V Norm_10 (level 10 vs 0, replicates): 0.943 and 1.355 and 1.161 | MIF.R.C Norm_10 (level 10 vs 0, replicates): 0.886 and 1.129 and 0.994 | MIG6.R.V Norm_10 (level 10 vs 0, replicates): 0.854 and 1.033 and 0.924 | MITF.R.V Norm_10 (level 10 vs 0, replicates): 1.203 and 1.053 | MLH1.M.V Norm_10 (level 10 vs 0, replicates): 0.862 and 0.921 and 1.113 | MLKL.R.V Norm_10 (level 10 vs 0, replicates): 0.834 and 0.796 | MMP2.R.V Norm_10 (level 10 vs 0, replicates): 0.901 and 0.975 and 0.933 | MMP14.R.V Norm_10 (level 10 vs 0, replicates): 1.370 and 1.223 and 1.159 | MR1.M.C Norm_10 (level 10 vs 0, replicates): 0.964 and 0.975 | MRAP.R.C Norm_10 (level 10 vs 0, replicates): 1.105 and 1.029 and 0.983 | MSH2.R.C Norm_10 (level 10 vs 0, replicates): 0.935 and 1.122 | MSH6.R.C Norm_10 (level 10 vs 0, replicates): 1.082 and 1.155 | MSI2.R.C Norm_10 (level 10 vs 0, replicates): 1.122 and 1.158 and 0.948 | MTCO1.M.V Norm_10 (level 10 vs 0, replicates): 0.961 and 1.134 and 1.079 | MTSS1.M.C Norm_10 (level 10 vs 0, replicates): 0.883 and 1.065 | Mcl.1.R.V Norm_10 (level 10 vs 0, replicates): 0.859 and 0.752 and 0.834 | MelanA.R.C Norm_10 (level 10 vs 0, replicates): 0.771 and 0.904 and 1.047 | Melanoma.gp100.R.C Norm_10 (level 10 vs 0, replicates): 0.993 and 0.873 and 0.988 | Merlin.R.C Norm_10 (level 10 vs 0, replicates): 1.228 and 1.105 | Midkine.R.V Norm_10 (level 10 vs 0, replicates): 0.894 and 0.939 and 0.959 | Mitofusin.1.R.V Norm_10 (level 10 vs 0, replicates): 0.986 and 0.948 and 0.964 | Mitofusin.2.R.V Norm_10 (level 10 vs 0, replicates): 0.858 and 0.863 and 1.224 | Mnk1.R.V Norm_10 (level 10 vs 0, replicates): 0.920 and 0.841 and 0.963 | mTOR.R.V Norm_10 (level 10 vs 0, replicates): 0.942 and 0.902 and 1.003 | mTOR_pS2448.R.C Norm_10 (level 10 vs 0, replicates): 1.029 and 0.921 and 1.128 | TSC1.R.C Norm_20 Average [1]: 0.903 | TTF1.R.V Norm_20 Average [1]: 1.162 | TUFM.R.V Norm_20 Average [1]: 0.835 | Tuberin.R.V Norm_20 Average [1]: 1.019 | Tuberin_pT1462.R.V Norm_20 Average [1]: 1.096 | Twist.M.C Norm_20 Average [1]: 0.916 | Tyro3.R.V Norm_20 Average [1]: 1.270 | U.Histone.H2B.R.C Norm_20 Average [1]: 2.670 | UBQLN4.M.C Norm_20 Average [1]: 0.936 | UGT1A.M.V Norm_20 Average [1]: 0.975 | ULK1_pS757.R.C Norm_20 Average [1]: 0.888 | UVRAG.R.C Norm_20 Average [1]: 1.003 | VASP.R.V Norm_20 Average [1]: 0.936 | VAV1.R.C Norm_20 Average [1]: 1.004 | VEGFR.2.R.V Norm_20 Average [1]: 0.966 | VEGFR.2_pY1175.R.C Norm_20 Average [1]: 0.978 | VHL.EPPK1.M.C Norm_20 Average [1]: 0.882 | VHL.R.C Norm_20 Average [1]: 0.906 | Vinculin.M.V Norm_20 Average [1]: 0.932 | WIPI1.R.C Norm_20 Average [1]: 1.388 | WIPI2.R.C Norm_20 Average [1]: 1.126 | WTAP.R.V Norm_20 Average [1]: 1.278 | Wee1.R.C Norm_20 Average [1]: 0.913 | Wee1_pS642.R.C Norm_20 Average [1]: 0.939 | XIAP.R.C Norm_20 Average [1]: 0.959 | XPA.M.V Norm_20 Average [1]: 0.905 | XPF.R.C Norm_20 Average [1]: 0.890 | YAP.R.C Norm_20 Average [1]: 0.956 | YAP_pS127.R.V Norm_20 Average [1]: 1.018 | YB1_pS102.R.V Norm_20 Average [1]: 0.999 | YES1.R.V Norm_20 Average [1]: 0.970 | YTHDF2.R.V Norm_20 Average [1]: 1.210 | YTHDF3.R.C Norm_20 Average [1]: 1.032 | ZAP.70.R.V Norm_20 Average [1]: 0.888 | ZEB1.R.V Norm_20 Average [1]: 0.961 | TSC1.R.C Norm_20_1 to Norm_20_3 [2]: 1.029 and 0.819 and 0.861 | TTF1.R.V Norm_20_1 to Norm_20_3 [2]: 1.129 and 1.026 and 1.331 | TUFM.R.V Norm_20_1 to Norm_20_3 [2]: 0.786 and 0.994 and 0.727 | Tuberin.R.V Norm_20_1 to Norm_20_3 [2]: 0.859 and 0.737 and 1.461 | Tuberin_pT1462.R.V Norm_20_1 to Norm_20_3 [2]: 1.032 and 1.164 | Twist.M.C Norm_20_1 to Norm_20_3 [2]: 0.837 and 0.972 | Tyro3.R.V Norm_20_1 to Norm_20_3 [2]: 1.252 and 1.345 and 1.211 | U.Histone.H2B.R.C Norm_20_1 to Norm_20_3 [2]: 1.699 and 5.734 and 0.577 | UBAC1.R.V Norm_20_1 to Norm_20_3 [2]: 1.032 and 1.010 and 1.218 | UBQLN4.M.C Norm_20_1 to Norm_20_3 [2]: 0.990 and 0.917 and 0.902 | UGT1A.M.V Norm_20_1 to Norm_20_3 [2]: 0.904 and 1.048 and 0.973 | ULK1_pS757.R.C Norm_20_1 to Norm_20_3 [2]: 0.939 and 0.770 and 0.955 | UQCRC2.M.C Norm_20_1 to Norm_20_3 [2]: 0.954 and 1.047 and 1.204 | UVRAG.R.C Norm_20_1 to Norm_20_3 [2]: 1.021 and 1.000 and 0.987 | VASP.R.V Norm_20_1 to Norm_20_3 [2]: 0.965 and 0.910 and 0.933 | VAV1.R.C Norm_20_1 to Norm_20_3 [2]: 1.081 and 0.961 and 0.970 | VEGFR.2.R.V Norm_20_1 to Norm_20_3 [2]: 0.959 and 0.914 and 1.026 | VEGFR.2_pY1175.R.C Norm_20_1 to Norm_20_3 [2]: 0.916 and 1.050 and 0.968
